ChEMBL document CHEMBL5725746, “Spiro-thiazolones” (2018)

Target: Vasopressin V1a receptor (Homo sapiens, UniProt P37288)
Experiment: competition binding assay: The human V1a receptor was cloned by RT-PCR from total human liver RNA. The coding sequence was subcloned in an expression vector after sequencing to confirm the identity of the amplified sequence. […] Cell membranes were prepared from HEK293 cells transiently transfected with the expression vector and grown in 20 liter fermenters with the following protocol.50 g of cells are re-suspended in 30 ml freshly prepared ice cold Lysis buffer (50 mM HEPES, 1 mM EDTA, 10 mM MgCl2 adjusted to pH=7.4+complete cocktail of protease inhibitor (Roche Diagnostics)). Homogenized with Polytron for 1 min and sonicated on ice for 2×2 minutes at 80% intensity (Vibracell sonicator). The preparation is centrifuged 20 min at 500 g at 4° C., the pellet is discarded and the supernatant centrifuged 1 hour at 43,000 g at 4° C. (19,000 rpm). The pellet is re-suspended in 12.5 ml Lysis buffer+12.5 ml Sucrose 20% and homogenized using a Polytron for 1-2 min. The protein concentration is determined by the Bradford method and aliquots are stored at −80° C. until use. For binding studies 60 mg Yttrium silicate SPA beads (Amersham) are mixed with an aliquot of membrane in binding buffer (50 mM Tris, 120 mM NaCl, 5 mM KCl, 2 mM CaCl2, 10 mM MgCl2) for 15 minutes with mixing. […]

Vasopressin V1a receptor, sequence (P37288 whole entry): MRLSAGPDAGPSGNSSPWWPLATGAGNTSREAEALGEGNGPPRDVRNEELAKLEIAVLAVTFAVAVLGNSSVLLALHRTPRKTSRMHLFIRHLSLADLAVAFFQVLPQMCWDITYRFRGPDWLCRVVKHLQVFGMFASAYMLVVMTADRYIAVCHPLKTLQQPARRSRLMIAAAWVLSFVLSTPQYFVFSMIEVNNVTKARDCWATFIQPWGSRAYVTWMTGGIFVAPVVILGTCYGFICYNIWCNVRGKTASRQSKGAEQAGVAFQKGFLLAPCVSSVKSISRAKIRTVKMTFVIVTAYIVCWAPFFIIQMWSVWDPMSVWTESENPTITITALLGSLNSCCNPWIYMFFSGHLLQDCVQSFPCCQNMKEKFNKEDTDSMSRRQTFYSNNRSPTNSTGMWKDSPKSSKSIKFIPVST

Row | SMILES | Ki [nM]
1 | C/C(=C1\SC(N2CCC3(CC2)OCc2ccccc23)=NC1=O)c1ccc(Cl)nc1 | 3.16
2 | C/C(=C1/SC(N2CCC3(CC2)OCc2ccccc23)=NC1=O)c1nccs1 | 1
